Experimental data from EP0727938B1, “DEVICE AND METHOD FOR PHOTOACTIVATION” (Cerus Corporation, priority 1993, dated 1995).

Assays:
[1] = system: human platelets; test: Platelet activation: GMP140 expression measured with CD62 antibody by flow cytometry; format: cell-based; conditions: for Activation, PMA Activated, Day 3: storage Day 3, PMA 10-^7 M; for Activation, PMA Activated, Day 5: storage Day 5, PMA 10-^7 M
Description: When platelets become activated, an alpha granule membrane glycoprotein called GMP140 becomes exposed on the platelet surface. Less than (5%) of fresh, normal unstimulated platelets express detectable GMP 140 levels by flow cytometry. See generally M.J. Metzelaar, Studies on the Expression of Activation-Markers on Human Platelets (Thesis 1991).
To measure GMP140, a small aliquot of platelet rich plasma is placed in HEPES buffer containing a GMP140-binding antibody or control mouse IgG. CD62 is a commercially available monoclonal antibody which binds to GMP 140 (available from Sanbio, Uden, the Netherlands; Caltag Labs, So. San Francisco, CA, and Becton Dickinson, Mountain View, CA). After a fifteen minute incubation, Goat Anti-Mouse IgG conjugated to FITC is added to the tube in saturating amounts. Finally, the cells are diluted in isotonic saline, fixed with paraformaldehyde and analyzed on a FACSCAN™ (Becton Dickinson, Mountain View, CA). The positive control is made by adding Phorbol Myristate Acetate (PMA) to the test system at a final concentration of 10-^7 M.
In this example, CD62 was employed to measure the impact, if any, of irradiation alone on platelet activation. The antibody was stored in small aliquots (0.01 mg/ml) at -40°C prior to use. A mouse IgG control (0.05 mg/ml) (Becton Dickinson, Mountain View, CA #9040) 5X concentrated was employed. At time of use, this was diluted 1:5 in HEPES buffer. The secondary antibody was goat Anti-Mouse IgG conjugated to FITC (TAGO, Burlingame, CA #3506). This was stored in small aliquots at -20°C. Phorbol Myristate Acetate (PMA) (Sigma, St. Louis, MO) was stored at -40°C. At time of use, this was dissolved in DMSO (working concentration was 1.62 X 10^-5 M).
16% Paraformaldehyde (PFA) (Sigma, St. Louis, MO) was prepared by adding 16 grams paraformaldehyde to 100 ml de-ionized water. This was heated to 70°C, whereupon 3 M NaOH was added dropwise until the solution was clear. The solution was cooled and the pH was adjusted to 7.4 with 1 N HCl. This was filtered and stored. A commercially available isotonic buffer was used: Hematall Isotonic Diluent (Fisher # CS 606-20).
Following irradiation, the platelets were stored for 5 days. At specific time points, aliquots were taken and processed.
Processing involved adding an aliquot (e.g. 5 microliters) of platelet concentrate to each microcentrifuge tube containing the antibody and appropriate reagents and this was mixed very gently by vortex. The samples were incubated for 15 minutes at room temperature.
The Goat anti-Mouse IgG-FITC (diluted 1:10 in HEPES buffer) was added (5 microliters) to each tube and the solution was mixed by gentle vortex. The samples were incubated for an additional 15 minutes at room temperature.
Isoton II was added (1 ml) to each tube and mixed gently with a polypropylene disposable pipette. 8% PFA in HEPES (150 microliters) was added to each diluted sample to final 1%. The platelets were analyzed on the FACSCAN™.
Shorter Irradiation Times.

[2] = system: viruses; conditions: 300 ug/ml of 8-MOP, one hour or more of irradiation with ultraviolet light; cited from earlier work
[3] = non activated 8-MOP; cited from earlier work
[4] = Photochemical breakdown measured by reverse phase HPLC; format: physicochemical; conditions: Figure 7
[5] = system: single stranded 5S ribosomal RNA; conditions: irradiation at 4°C compared to 20°C; cited from earlier work

## COc1c2occc2cc2ccc(=O)oc12 [8-MOP, 8-methoxypsoralen]
[1]; 10 ug/ml 8-MOP, five minutes UVA, 25°C, stored for 5 days
  damage to platelets after irradiation in the presence of psoralen: without damage to the cells
[2]
  inactivation of viruses: can effectively inactivate viruses
[3]
  mutagenicity: not mutagenic

## Cc1oc2c(C)c3oc(=O)cc(C)c3cc2c1CN [AMT, 4'-aminomethyl-4,5',8-trimethylpsoralen]
[4]
  degradation (photochemical breakdown): degrades more quickly than 8-MOP

## Cc1oc2c(C)c3oc(=O)cc(C)c3cc2c1CO [HMT, 4'-hydroxymethyl-4,5',8-trimethylpsoralen]
[5]
  enhancement of covalent addition of HMT to 5S rRNA: two fold

## CCCCCCCCCCCCCC(=O)O[C@@H]1[C@@H](C)[C@@]2(O)[C@@H](C=C(CO)C[C@]3(O)C(=O)C(C)=C[C@@H]23)[C@@H]2C(C)(C)[C@]12OC(C)=O [PMA, Phorbol Myristate Acetate]
[1]; Control (no irradiation)
  Activation, PMA Activated, Day 3: 85%
  Activation, PMA Activated, Day 5: 89%
[1]; UV 5'
  Activation, PMA Activated, Day 3: 87%
  Activation, PMA Activated, Day 5: 86%
[1]; UV 10'
  Activation, PMA Activated, Day 3: 84%
  Activation, PMA Activated, Day 5: 79%
